The values that follow come from patent US6353124B1, “Therapeutic compound-fatty acid conjugates” (priority 1993, dated 2002).

One series relates to UVB induced oedema. Kind of series: UVB induced oedema (net skin fold thickness increase) in SKH-1 hairless mice, topical application. Conditions: for Immediate Activity Results, highest to lowest (ranking): painted after 3 MED UVB, 4% ibuprofen equivalent (Ibu-ATP3 at 2%), FIG. 5; for effect on oedema at 2%: 2% ibuprofen, as the conjugate or as the free drug; for photoprotection against UVB induced oedema against interval of application: crude 2% (30% purity, contaminated with GTP2), 100 μl, days -5 to 0, FIG. 3. The format is in vivo. As for the experimental part:
The vehicle used was a variation of previously published vehicles and consisted of ethanol:DMSO at a 5:1 ratio. […] The oedema was then determined by measuring the skin fold thickness (SFT) of a folded mid-dorsal piece of skin using a hand-held micrometer. Measurements were taken at 0 hours, just prior to UVB exposure and at 24 hours post UVB exposure. A control group, painted with 60 or 100 μl of the vehicle, was used to determine the increase in skin oedema due to the inflammatory response. […] The pre UVB SFT measurement was subtracted from the 24 hour SFT measurement, to determine the Net Skin Fold Thickness increase (NSFT).

In a further series the test system is UVB induced burns. The series is described as follows: Effect on UVB induced burns in mice, topical application. The format is in vivo. As to the method:
(§1) Method Groups of 3 female mice were exposed to 3 MED of UVB on their dorsal surface and then were immediately painted (by smoothing the topical solution over the dorsal surface) with 60 μl or 100 μl of vehicle or vehicle containing increasing concentrations of NSAID's or NSAID fatty acid conjugates. The vehicle used was a variation of previously published vehicles and consisted of ethanol:DMSO at a 5:1 ratio. The test NSAID's and their conjugates were either applied after UVB irradiation to reduce the possibility of sun-screening effects (Day 0), or 1 to 5 days prior to UVB exposure. The oedema was then determined by measuring the skin fold thickness (SFT) of a folded mid-dorsal piece of skin using a hand-held micrometer. Measurements were taken at 0 hours, just prior to UVB exposure and at 24 hours post UVB exposure. A control group, painted with 60 or 100 μl of the vehicle, was used to determine the increase in skin oedema due to the inflammatory response. […] The pre UVB SFT measurement was subtracted from the 24 hour SFT measurement, to determine the Net Skin Fold Thickness increase (NSFT).
Individual scores are presented for each mouse ie a result indicated as 5,4,3 is interperated as the first mouse having a severe burn, the second mouse a moderate to severe burn and the third mouse a moderate burn.

In another series the test system is Skh-1 mouse. Kind of series: Toxicity and tolerability of topically applied indomethacin in Skh-1 mice. The format is in vivo. The conditions noted are these: painted on dorsal surface, range 0.1% to 2.5% tested. As for the experimental part: as §1
As a preliminary study the ability of indomethacin to protect against oedema in Skh-1 mouse was determined. Indomethacin over a concentration range from 0.1% to 2.5% was applied after the mice had been irradiated with UVB; non-irradiated controls were also run. […]

Series [1] relates to sunburn erythema. The conditions noted are these: 2.5% in propylene glycol:ethanol:dimethylacetamide (19:19:2), 3 MED of UV light, humans; cited from earlier work.
Series [2] relates to sunburn erythema. The conditions noted are these: 2.5% in propylene glycol:ethanol:dimethylacetamide (19:19:2), 3 MED of UV light, guinea-pigs; cited from earlier work.

Like-named read-outs stand apart in the source and are kept apart here.

`COc1ccc2c(c1)c(CC(=O)O)c(C)n2C(=O)c1ccc(Cl)cc1` [indomethacin, 1-(4-Chlorobenzoyl)-5-methoxy-2-methyl-1H-indole-3-acetic acid]: the “anti-inflammatory effect at 0.1%” value with UVB induced oedema (0.1% applied after UVB, 24 hours) is recorded as “mild anti-inflammatory effect”. Also, the “erythema and oedema with concentration” value with UVB induced oedema (0.1% to 2.5% applied after UVB) is “decrease in erythema and oedema with increasing concentrations”. The “protection against UVB induced oedema, applied 3 days prior to UVB” value in the series with UVB induced oedema (1% indomethacin, 3 days prior to exposure, FIG. 2) is listed as “approximately 50%”. The “protection against UVB induced oedema, applied 5 days prior to UVB” value with UVB induced oedema (1% indomethacin, 5 days prior to exposure, FIG. 2) is “not present”. Further, the “protective effect on UVB induced oedema against interval of application” value in the series with UVB induced oedema (100 μl of 1% solution, days -5 to -1 before UVB and Day 0, NSFT at 24 hours, FIG. 2) is “loses its protective effect on UVB induced oedema as the interval of application prior to exposure increases”. In addition, the “concentration giving maximal protection against erythema and oedema” value in the series on UVB induced oedema (applied after UVB, 24 hours, range 0.1% to 2.5%) was at least 1%. The “effect on burn repair” value in the series with UVB induced burns (indomethacin levels that prevent oedema) is “little or no effect on burn repair”. Further, in the series on Skh-1 mouse, the “topical concentration lethal after 36 hours (gastrointestinal haemorrhage)” value is on record as at least 2%. Also, the “protection against sunburn erythema” value in the series with sunburn erythema [1] and in the series on sunburn erythema [2] was “total protection” throughout.

Take ibuprofen-alanine-Tris [Ibu-AT]: the “Immediate Activity Results, highest to lowest (ranking)” value (shortened to “Immediate Activity Results, highest”) in the series on UVB induced oedema is recorded as 4% Ibu=4% Ibu-ATP>4% Ibu-ATP2>4% Ibu-AT=2% Ibu-ATP3.

On to “ibuprofen-alanine-Tris-dipalmitate [Ibu-ATP2]”, for which, in the series with UVB induced oedema, the “Immediate Activity Results, highest” value is on record as 4% Ibu=4% Ibu-ATP>4% Ibu-ATP2>4% Ibu-AT=2% Ibu-ATP3.

Consider “ibuprofen-alanine-Tris-monopalmitate [Ibu ATP1]”, for which, in the series with UVB induced oedema, the “effect on oedema at 2%” value is recorded as “little effect on oedema” and the “Immediate Activity Results, highest” value is on record as 4% Ibu=4% Ibu-ATP>4% Ibu-ATP2>4% Ibu-AT=2% Ibu-ATP3. The “protective effect on UVB induced burns” value with UVB induced burns (2%, painted after 3 MED UVB, compared with unmodified ibuprofen) was “protective effect on UVB induced burns to a much greater extent than unmodified ibuprofen”.

Take “ibuprofen-alanine-Tris-tripalmitate [Ibu-ATP3]”: the “Immediate Activity Results, highest” value in the series with UVB induced oedema is listed as 4% Ibu=4% Ibu-ATP>4% Ibu-ATP2>4% Ibu-AT=2% Ibu-ATP3.

Take “indomethacin-glycine-Tris-dipalmitate [Indo-GTP2]”: the results for the “photoprotection against UVB induced oedema against interval of application” value with UVB induced oedema and in the series on UVB induced oedema (listed as indomethacin-glycine-Tris-dipalmitate) were “most protective 5 days prior to irradiation with UVB” and “most pronounced at 5 days prior to exposure with UVB”, respectively. In addition, the “prolonged and immediate protective activity against UVB induced oedema” value in the series with UVB induced oedema (high purity, 2% (indomethacin equivalent), painted 5 days prior to or immediately after UVB, compared with Indo-GTP3, Indo-EP1, Indo-GEP1, FIG. 4) was “highest levels of prolonged and immediate activity”.

Regarding “α-Methyl-4-(2-methylpropyl)benzene acetic acid [Ibu cont]”, in the series with UVB induced oedema, the “effect on oedema at 2%” value is listed as “little effect on oedema” and the “Immediate Activity Results, highest” value is 4% Ibu=4% Ibu-ATP>4% Ibu-ATP2>4% Ibu-AT=2% Ibu-ATP3.
